Reference: patent US7445897B2, “Sequence variants of multi-drug resistance genes, MDR1 and MRP1, and methods for assessment of drug penetration and disposition” (University of Washington, priority 2004, dated 2008)
Read-outs that look alike come from different tables or passages of the source.

What was measured:
[1] = system: Pgp (MDR1 and 1199 variants) in recombinant HEK cells; experiment: Doxorubicin intracellular accumulation in recombinant HEK cells; assay type: cell-based, human; conditions: recombinant HEK cells expressing MDR1, any variant
Method: Cells were washed with ice-cold PBS, trypsinized, and lysed in 0.5% deoxycholic acid. To precipitate the proteins tricholoracetic acid was added to 5% and the cell lysates were incubated for 30 min at 4° C. and centrifuged at 20,000 g.

[2] = biological target: P-gp (MDR11199, G1199A) in recombinant LLC-PK1 cells (Homo sapiens, UniProt P08183, S400N)
[3] = van Heeswijk et al. 2001; cited from earlier work
LLC-PK1 control cells [4] = system: LLC-PK1 control cells
[5] = system: P-gp (MDR11199, G1199A) in recombinant LLC-PK1 cells; conditions: human, LLC-PK1
MDR1 (G1199T variant) = experiment: Cytotoxic drug sensitivity assay (MTS); assay type: cell-based, human; conditions: human, HEK293 cells recombinantly expressing MDR1 G1199T
MDR1 (wild type) = experiment: Cytotoxic drug sensitivity assay (MTS); assay type: cell-based, human; conditions: human, HEK293 cells recombinantly expressing MDR1 wild type
[6] = system: recombinant MDR11199 LLC-PK1 cells; experiment: Cytotoxic drug sensitivity assay (3H-thymidine); assay type: cell-based, porcine
Method: (§1) On the second day of the incubation, 1 μCi of ^3H-thymidine (specific activity: 81.1 Ci/mmole) was added to each well and incubated overnight. Cells were harvested on day 3 with a cell harvester.
(§2) Dose response analysis was performed for doxorubicin, vincristine and vinblastine. […] TRANSEPITHELIAL TRANSPORT

[7] = system: recombinant MDR1wt LLC-PK1 cells; experiment: Cytotoxic drug sensitivity assay (3H-thymidine); assay type: cell-based, porcine
Method: as §1, §2

LLC-PK1 control cells [8] = experiment: Cytotoxic drug sensitivity assay (3H-thymidine); assay type: cell-based, porcine; conditions: Sus scrofa, 72 h, 3 days with drug
Method: as §1, §2

MDR1 (G1199A variant) = experiment: in vitro; conditions: human, HEK293 cells recombinantly expressing MDR1 G1199A
[9] = system: HEK negative control cells; experiment: Cytotoxic drug sensitivity assay (MTS); assay type: cell-based, human; conditions: Homo sapiens, 72 h
[10] = biological target: T1, MDR1wt in recombinant HEK cells (Homo sapiens, UniProt P08183, G185V/S893A); experiment: Intracellular levels of Rhodamine123 in HEK cells; assay type: cell-based
T1 construct: full-length MDR1 cDNA was generated using the high-fidelity protocol developed previously; expressed in transfected cells

[11] = biological target: T2, MDR1G1199A in recombinant HEK cells (Homo sapiens, UniProt P08183, G185V/S400N/S893A); experiment: Intracellular levels of Rhodamine123 in HEK cells; assay type: cell-based
T2 construct: full-length MDR1 cDNA was generated using the high-fidelity protocol developed previously; expressed in transfected cells

[12] = biological target: T3, MDR1G1199T in recombinant HEK cells (Homo sapiens, UniProt P08183, G185V/S400I/S893A); experiment: Intracellular levels of Rhodamine123 in HEK cells; assay type: cell-based
T3 construct: full-length MDR1 cDNA was generated using the high-fidelity protocol developed previously; expressed in transfected cells

HEK293 control cells = experiment: Intracellular levels of Rhodamine123 in HEK cells; assay type: cell-based, human
[13] = protease inhibitor + GF120918 (1 μM)
[14] = HEK MDR1 WT, 72hours, MTS, read-out: EC50 (Mean ± S.D.)
[15] = HEK Control, 72hours, MTS, read-out: EC50 (Mean ± S.D.)
[16] = 0.5 uM, 30 min load, 30 min efflux

T1 sequence (P08183 whole entry G185V/S893A): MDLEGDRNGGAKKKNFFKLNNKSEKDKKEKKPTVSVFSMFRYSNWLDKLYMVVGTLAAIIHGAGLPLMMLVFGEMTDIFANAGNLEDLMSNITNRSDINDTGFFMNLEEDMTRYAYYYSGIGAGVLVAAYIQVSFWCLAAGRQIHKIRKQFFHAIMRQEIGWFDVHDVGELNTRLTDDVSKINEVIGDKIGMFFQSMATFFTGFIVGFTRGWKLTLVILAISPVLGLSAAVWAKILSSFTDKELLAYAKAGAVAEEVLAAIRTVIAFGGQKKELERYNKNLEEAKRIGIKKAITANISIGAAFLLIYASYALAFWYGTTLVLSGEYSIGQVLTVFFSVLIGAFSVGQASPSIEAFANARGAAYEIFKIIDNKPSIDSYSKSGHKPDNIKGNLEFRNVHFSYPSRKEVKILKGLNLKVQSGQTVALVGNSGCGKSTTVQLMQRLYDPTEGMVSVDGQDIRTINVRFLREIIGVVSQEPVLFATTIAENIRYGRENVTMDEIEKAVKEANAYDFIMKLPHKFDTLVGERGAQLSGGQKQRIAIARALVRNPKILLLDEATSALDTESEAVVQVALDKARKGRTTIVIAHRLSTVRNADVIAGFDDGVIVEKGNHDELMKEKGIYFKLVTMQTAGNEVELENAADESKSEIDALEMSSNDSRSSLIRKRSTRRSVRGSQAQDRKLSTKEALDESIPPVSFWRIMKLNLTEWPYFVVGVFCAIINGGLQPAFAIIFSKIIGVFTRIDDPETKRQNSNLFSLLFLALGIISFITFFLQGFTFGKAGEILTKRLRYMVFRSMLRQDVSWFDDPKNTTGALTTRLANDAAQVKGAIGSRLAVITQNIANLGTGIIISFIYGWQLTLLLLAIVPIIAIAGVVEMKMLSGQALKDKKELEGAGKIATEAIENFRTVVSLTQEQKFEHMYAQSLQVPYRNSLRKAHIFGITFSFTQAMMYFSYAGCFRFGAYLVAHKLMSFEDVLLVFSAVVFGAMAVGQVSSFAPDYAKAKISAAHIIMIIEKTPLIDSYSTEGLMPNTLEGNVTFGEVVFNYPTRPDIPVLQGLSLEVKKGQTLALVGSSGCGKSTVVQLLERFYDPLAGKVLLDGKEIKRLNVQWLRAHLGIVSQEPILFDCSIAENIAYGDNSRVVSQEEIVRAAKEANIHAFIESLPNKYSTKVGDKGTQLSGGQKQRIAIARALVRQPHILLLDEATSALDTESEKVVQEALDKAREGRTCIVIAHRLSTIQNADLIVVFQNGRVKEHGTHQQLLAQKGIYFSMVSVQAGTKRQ
T3 sequence (P08183 whole entry G185V/S400I/S893A): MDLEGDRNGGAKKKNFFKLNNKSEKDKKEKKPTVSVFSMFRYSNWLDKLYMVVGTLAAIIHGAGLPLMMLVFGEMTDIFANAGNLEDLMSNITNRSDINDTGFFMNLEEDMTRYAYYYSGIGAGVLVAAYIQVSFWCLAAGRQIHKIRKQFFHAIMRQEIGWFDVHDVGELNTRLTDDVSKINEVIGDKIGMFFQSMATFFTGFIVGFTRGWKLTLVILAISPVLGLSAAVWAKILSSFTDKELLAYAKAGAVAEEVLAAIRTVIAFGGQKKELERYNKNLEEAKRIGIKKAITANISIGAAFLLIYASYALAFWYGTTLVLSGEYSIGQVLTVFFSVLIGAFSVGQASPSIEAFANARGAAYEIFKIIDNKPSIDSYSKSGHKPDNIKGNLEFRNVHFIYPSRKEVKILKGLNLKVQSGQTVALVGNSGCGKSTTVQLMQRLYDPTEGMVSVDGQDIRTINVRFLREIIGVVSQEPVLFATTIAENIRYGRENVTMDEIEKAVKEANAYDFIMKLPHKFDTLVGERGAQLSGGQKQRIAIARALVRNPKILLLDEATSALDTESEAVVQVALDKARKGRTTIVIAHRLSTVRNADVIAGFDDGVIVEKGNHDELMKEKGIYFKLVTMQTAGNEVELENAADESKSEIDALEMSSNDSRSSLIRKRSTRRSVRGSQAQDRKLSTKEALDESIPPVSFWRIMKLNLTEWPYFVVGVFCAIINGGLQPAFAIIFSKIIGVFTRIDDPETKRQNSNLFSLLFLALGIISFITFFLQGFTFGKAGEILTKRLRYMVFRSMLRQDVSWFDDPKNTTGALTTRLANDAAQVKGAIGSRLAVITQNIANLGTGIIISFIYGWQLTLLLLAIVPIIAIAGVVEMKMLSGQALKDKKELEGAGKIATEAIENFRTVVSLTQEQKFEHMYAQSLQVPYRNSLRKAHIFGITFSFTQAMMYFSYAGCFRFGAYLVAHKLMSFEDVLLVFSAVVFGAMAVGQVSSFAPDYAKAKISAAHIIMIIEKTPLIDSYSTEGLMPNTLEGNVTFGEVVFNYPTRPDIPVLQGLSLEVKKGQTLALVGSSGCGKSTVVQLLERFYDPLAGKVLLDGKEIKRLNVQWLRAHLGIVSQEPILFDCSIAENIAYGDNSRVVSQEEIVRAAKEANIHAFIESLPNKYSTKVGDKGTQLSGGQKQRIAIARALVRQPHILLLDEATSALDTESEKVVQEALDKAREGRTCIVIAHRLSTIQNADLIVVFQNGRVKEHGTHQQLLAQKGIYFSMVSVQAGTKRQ
T2 sequence (P08183 whole entry G185V/S400N/S893A): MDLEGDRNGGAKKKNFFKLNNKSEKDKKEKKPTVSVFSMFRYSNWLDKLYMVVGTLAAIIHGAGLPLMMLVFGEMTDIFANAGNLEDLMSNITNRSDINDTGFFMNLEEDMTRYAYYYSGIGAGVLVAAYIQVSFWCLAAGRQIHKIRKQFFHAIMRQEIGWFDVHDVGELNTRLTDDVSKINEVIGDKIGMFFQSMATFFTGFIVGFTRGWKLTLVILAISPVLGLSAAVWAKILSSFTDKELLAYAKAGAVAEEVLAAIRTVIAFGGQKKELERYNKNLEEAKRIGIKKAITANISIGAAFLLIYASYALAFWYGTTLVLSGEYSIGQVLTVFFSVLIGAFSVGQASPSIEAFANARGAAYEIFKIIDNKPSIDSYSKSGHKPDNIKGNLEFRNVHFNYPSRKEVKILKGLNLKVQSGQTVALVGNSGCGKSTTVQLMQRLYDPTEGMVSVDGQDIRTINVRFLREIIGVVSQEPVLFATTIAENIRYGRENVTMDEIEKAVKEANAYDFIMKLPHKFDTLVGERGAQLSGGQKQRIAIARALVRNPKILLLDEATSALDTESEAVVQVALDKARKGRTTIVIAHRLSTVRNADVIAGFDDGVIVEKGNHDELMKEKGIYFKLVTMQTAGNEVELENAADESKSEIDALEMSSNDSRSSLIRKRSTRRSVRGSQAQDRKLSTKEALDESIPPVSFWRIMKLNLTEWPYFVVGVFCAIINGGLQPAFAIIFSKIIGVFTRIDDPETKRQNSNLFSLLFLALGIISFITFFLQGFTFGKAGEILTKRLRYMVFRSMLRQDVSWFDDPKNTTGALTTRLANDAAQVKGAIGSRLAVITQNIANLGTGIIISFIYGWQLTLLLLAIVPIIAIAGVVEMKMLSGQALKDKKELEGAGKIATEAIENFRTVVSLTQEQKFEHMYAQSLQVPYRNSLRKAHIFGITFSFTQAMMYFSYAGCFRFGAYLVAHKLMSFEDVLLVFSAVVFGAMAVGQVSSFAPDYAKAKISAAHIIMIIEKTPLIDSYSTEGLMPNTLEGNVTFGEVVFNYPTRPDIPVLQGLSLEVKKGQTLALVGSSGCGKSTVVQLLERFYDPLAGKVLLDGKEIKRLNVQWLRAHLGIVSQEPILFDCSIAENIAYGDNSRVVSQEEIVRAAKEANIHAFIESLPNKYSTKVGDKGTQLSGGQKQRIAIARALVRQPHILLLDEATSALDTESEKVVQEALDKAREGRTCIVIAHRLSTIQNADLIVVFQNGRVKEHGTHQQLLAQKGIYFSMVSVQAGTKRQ
Sequence of P-gp (MDR11199, G1199A) in recombinant LLC-PK1 cells (Homo sapiens, UniProt P08183, S400N) (P08183 whole entry S400N): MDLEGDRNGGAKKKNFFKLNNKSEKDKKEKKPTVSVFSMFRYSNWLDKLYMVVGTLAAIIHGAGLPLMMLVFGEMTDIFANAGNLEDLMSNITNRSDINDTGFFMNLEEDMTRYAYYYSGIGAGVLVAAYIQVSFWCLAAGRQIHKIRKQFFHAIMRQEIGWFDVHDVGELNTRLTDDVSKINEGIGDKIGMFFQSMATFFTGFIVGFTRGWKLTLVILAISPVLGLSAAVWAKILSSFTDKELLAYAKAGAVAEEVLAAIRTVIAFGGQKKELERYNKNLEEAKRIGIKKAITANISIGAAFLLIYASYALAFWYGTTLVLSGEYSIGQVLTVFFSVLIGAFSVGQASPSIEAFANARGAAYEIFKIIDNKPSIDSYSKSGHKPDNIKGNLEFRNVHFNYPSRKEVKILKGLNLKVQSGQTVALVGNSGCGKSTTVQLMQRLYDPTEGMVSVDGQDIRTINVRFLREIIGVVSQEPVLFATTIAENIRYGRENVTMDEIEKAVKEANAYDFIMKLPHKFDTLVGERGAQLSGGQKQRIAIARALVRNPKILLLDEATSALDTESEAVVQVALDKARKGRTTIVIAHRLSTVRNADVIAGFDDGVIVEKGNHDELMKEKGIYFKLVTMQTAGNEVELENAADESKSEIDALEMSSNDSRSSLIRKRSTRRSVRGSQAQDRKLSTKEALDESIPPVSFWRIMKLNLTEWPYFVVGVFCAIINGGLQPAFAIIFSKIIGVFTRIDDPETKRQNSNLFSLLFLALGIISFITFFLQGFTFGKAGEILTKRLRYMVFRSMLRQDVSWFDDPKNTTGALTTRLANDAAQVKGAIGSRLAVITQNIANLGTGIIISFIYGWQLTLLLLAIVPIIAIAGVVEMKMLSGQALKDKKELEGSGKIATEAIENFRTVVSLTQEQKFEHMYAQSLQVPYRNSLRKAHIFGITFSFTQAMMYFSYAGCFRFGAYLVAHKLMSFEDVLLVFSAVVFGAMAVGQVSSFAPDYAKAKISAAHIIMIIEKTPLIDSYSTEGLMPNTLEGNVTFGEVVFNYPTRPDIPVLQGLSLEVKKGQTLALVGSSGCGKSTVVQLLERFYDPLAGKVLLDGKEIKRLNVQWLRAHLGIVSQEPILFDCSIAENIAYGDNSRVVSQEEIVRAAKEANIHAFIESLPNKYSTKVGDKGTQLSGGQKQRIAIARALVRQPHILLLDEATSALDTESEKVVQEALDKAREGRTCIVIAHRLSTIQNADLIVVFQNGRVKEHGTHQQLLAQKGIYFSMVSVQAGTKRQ

## COc1cc2c(cc1OC)CN(CCc1ccc(NC(=O)c3cccc4c(=O)c5cccc(OC)c5[nH]c34)cc1)CC2 [GF120918, N-(4-[2-(1,2,3,4-tetrahydro-6,7-dimethoxy-2-isoquinolinyl)ethyl]-phenyl)-9,10-dihydro-5-methoxy-9-oxo-4-acridine carboxamide]
[1]
  effect of inhibitor on reduction in intracellular doxorubicin concentration: can be reversed
[2]
  effect of inhibitor on P-gp efflux of protease inhibitors: effectively blocked P-gp activity

## Cc1c(O)cccc1C(=O)N[C@@H](CSc1ccccc1)[C@H](O)CN1C[C@H]2CCCC[C@H]2C[C@H]1C(=O)NC(C)(C)C [nelfinavir]
[3]
  oral bioavailability in systemic circulation: 70-80%

## CC(C)(C)NC(=O)[C@@H]1CN(Cc2cccnc2)CCN1C[C@@H](O)C[C@@H](Cc1ccccc1)C(=O)N[C@H]1c2ccccc2C[C@H]1O [indinavir]
[3]
  oral bioavailability in systemic circulation: 70%
LLC-PK1 control cells [4]; [13]
  Rate of transfer dQ/dt ± s.d., A → B: 4.26 ± 0.25
  Rate of transfer dQ/dt ± s.d., B → A: 5.99 ± 0.11
LLC-PK1 control cells [4]; protease inhibitor alone, 5 μM
  Rate of transfer dQ/dt ± s.d., A → B: 7.17 ± 0.03
  Rate of transfer dQ/dt ± s.d., B → A: 6.69 ± 0.21
[5]
  decrease in apical-to-basolateral flux in MDR11199 cells compared to MDR1wt cells: 1.9 fold

## CC[C@]1(O)C[C@H]2CN(CCc3c([nH]c4ccccc34)[C@@](C(=O)OC)(c3cc4c(cc3OC)N(C=O)[C@H]3[C@@](O)(C(=O)OC)[C@H](OC(C)=O)[C@]5(CC)C=CCN6CC[C@]43[C@@H]65)C2)C1 [vincristine]
MDR1 (G1199T variant); HEK - MDR1 G1199T, 0 month, 72 hours, read-out: EC50 for cell growth inhibition
  EC50 at 72 h: 246 ± 84 nM
MDR1 (wild type); HEK - MDR1 WT, 0 month, 72 hours, read-out: EC50 for cell growth inhibition
  EC50 at 72 h: 494 ± 115 nM
MDR1 (wild type); HEK - MDR1 WT, 1 months, 72 hours, read-out: EC50 for cell growth inhibition
  EC50 at 72 h: 512 ± 85.1 nM
MDR1 (wild type); HEK - MDR1 WT, 2 months, 72 hours, read-out: EC50 for cell growth inhibition
  EC50 at 72 h: 710 ± 33.3 nM
MDR1 (wild type); [14]
  EC50 at 72 h: 710 ± 33.3 nM
[6]; MDR11199 vs LLC-PK1 control
  EC50 fold-change from control: 9.23 fold
[6]; MDR11199 vs MDR1wt, from EC50
  resistance of MDR11199 cells relative to MDR1wt cells: ~2.9 fold
[6]; Sus scrofa, 72 h, MDR11199 LLC-PK1 cells, 3 days with drug
  EC50: 3.41 ± 1.47 nM
[6]; cytotoxicity studies, LLC-PK1
  resistance of MDR11199 cells compared with MDR1wt cells: more resistant
[7]; MDR1wt vs LLC-PK1 control
  EC50 fold-change from control: 3.19 fold
[7]; Sus scrofa, 72 h, MDR1wt LLC-PK1 cells, 3 days with drug
  EC50: 1.18 ± 0.56 nM
LLC-PK1 control cells [8]
  EC50: 0.37 ± 0.12 nM
MDR1 (G1199A variant)
  EC50 at 72 h: 860 ± 51.8 nM
MDR1 (G1199A variant); EC50 for cell growth inhibition, HEK - MDR1 G1199A, 0 month, 72 hours
  EC50 at 72 h: 683 ± 276 nM
MDR1 (G1199A variant); EC50 for cell growth inhibition, HEK - MDR1 G1199A, 1 months, 72 hours
  EC50 at 72 h: 667 ± 87.5 nM
MDR1 (G1199A variant); EC50 for cell growth inhibition, HEK - MDR1 G1199A, 2 months, 72 hours
  EC50 at 72 h: 860 ± 51.8 nM
[9]; [15]
  EC50: 10.2 ± 1.04 nM
[9]; HEK negative control, 0 month, 72 hours, read-out: EC50 for cell growth inhibition
  EC50: 4.01 ± 1.29 nM
[9]; HEK negative control, 1 months, 72 hours, read-out: EC50 for cell growth inhibition
  EC50: 6.68 ± 0.448 nM
[9]; HEK negative control, 2 months, 72 hours, read-out: EC50 for cell growth inhibition
  EC50: 10.2 ± 1.04 nM

## Cc1cccc(C)c1OCC(=O)N[C@@H](Cc1ccccc1)[C@@H](O)C[C@H](Cc1ccccc1)NC(=O)[C@H](C(C)C)N1CCCNC1=O [lopinavir]
LLC-PK1 control cells [4]; [13]
  Rate of transfer dQ/dt ± s.d., A → B: 8.48 ± 0.16
LLC-PK1 control cells [4]; protease inhibitor alone, 5 μM
  Rate of transfer dQ/dt ± s.d., A → B: 9.21 ± 0.24
[5]
  decrease in apical-to-basolateral flux in MDR11199 cells compared to MDR1wt cells: 1.6 fold

## CC(=O)O[C@H]1C(=O)[C@@]2(C)[C@H]([C@H](OC(=O)c3ccccc3)[C@]3(O)C[C@H](OC(=O)[C@H](O)[C@@H](NC(=O)c4ccccc4)c4ccccc4)C(C)=C1C3(C)C)[C@]1(OC(C)=O)CO[C@@H]1C[C@@H]2O [paclitaxel]
MDR1 (G1199T variant); HEK MDR1 G1199T, 72hours, MTS, read-out: EC50 (Mean ± S.D.)
  EC50 at 72 h: 42.7 ± 12.7 nM
MDR1 (wild type); [14]
  EC50 at 72 h: 128 ± 50 nM
[9]; [15]
  EC50: 2.67 ± 0.13 nM

## Rhodamine-123 [R123]
[10]; [16]
  Intracellular Rhodamine: 2.26 ± 0.06 Unit/mg protein
[10]; converted to HEK293
  % of control: 220%
[11]; [16]
  Intracellular Rhodamine: 1.44 ± 0.12 Unit/mg protein
[11]; converted to HEK293
  % of control: 340%
[12]; [16]
  Intracellular Rhodamine: 1.82 ± 0.17 Unit/mg protein
[12]; converted to HEK293
  % of control: 260%
HEK293 control cells
  % of control: 100%
HEK293 control cells; [16]
  Intracellular Rhodamine: 4.66 ± 0.14 Unit/mg protein
